Reference: patent US11390621B2, “Chiral indole compounds and their use” (ARIAGEN, INC., priority 2019, dated 2022)

Legend:
Format in all cases: in vitro ADME
[1] = Hepatocyte intrinsic clearance assay (metabolic stability), human hepatocytes; conditions: male, human, cryopreserved pooled hepatocytes, Human Hepatocytes, 1 μM test compound
Method in brief: (§1)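 Cryopreserved pooled hepatocytes (1×10^6 cells/mL final) incubated with 1 μM compound at 37 °C, 5% CO2; samples at 0–120 min quenched in acetonitrile, analysed by LC-MS in duplicate. t1/2 and CLint from ln(% remaining) vs time slope; CLH via well-stirred liver model (fu=1) and EH derived from it.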

human hepatocytes = assay: as above; conditions: Human Hepatocytes; well stirred liver model, fu=1
Method in brief: as §1

[2] = Hepatocyte intrinsic clearance assay (metabolic stability), rat hepatocytes; conditions: rat, cryopreserved hepatocytes, Rat Hepatocytes, 1 μM test compound
Method in brief: as §1

rat hepatocytes = assay: as above; conditions: Rat Hepatocytes; well stirred liver model, fu=1
Method in brief: as §1

| SMILES | half-life at 1 μM [1] [h] | hepatocyte CLint at 1 μM [1] [µL/min/1e6 cells] | EH (hepatic extraction ratio) (human hepatocytes) [%] | half-life at 1 μM [2] [h] | hepatocyte CLint at 1 μM [2] [µL/min/1e6 cells] | EH (hepatic extraction ratio) (rat hepatocytes) [%] |
| --- | --- | --- | --- | --- | --- | --- |
| CC(C)(O)c1csc(C(=O)c2c[nH]c3cc(F)ccc23)n1 [ARI-220, (6-fluoro-1H-indol-3-yl)(4-(2-hydroxypropan-2-yl)thiazol-2-yl)methanone] | 1.4 | 8.33 | 21.6 | 2.4 | 4.77 | 24.2 |
| O=C(c1nc(C2(O)CC2)cs1)c1c[nH]c2cc(F)ccc12 [ARI-221, (6-fluoro-1H-indol-3-yl)(4-(1-hydroxycyclopropyl)thiazol-2-yl)methanone] | 0.5 | 25.3 | 27.3 | 2.1 | 5.55 | 27.1 |
| N[C@H](c1csc(C(=O)c2c[nH]c3ccccc23)n1)C(F)(F)F [ARI-228] | 0.2 | 64.4 | 27.6 | 0.1 | 112 | 88.2 |
| CC[C@@H](N)c1csc(C(=O)c2c[nH]c3ccc(F)cc23)n1 [ARI-219] | 5.3 | 2.17 | 11.5 | 0.5 | 21.4 | 58.9 |
| N[C@H](c1csc(C(=O)c2c[nH]c3cc(F)ccc23)n1)C(F)(F)F [ARI-223] | 1 | 11.6 | 23.7 | 0.5 | 25.6 | 63.1 |
| N[C@@H](c1csc(C(=O)c2c[nH]c3ccccc23)n1)C(F)(F)F [ARI-229] | 2.3 | 5.03 | 11.4 | 1 | 11.7 | 43.9 |
